{"source": "patent US20090148382A1", "about": "“Technetium- and rhenium-bis(heteroaryl) complexes, and methods of use thereof” (Molecular Insight Pharmaceuticals, Inc., priority 2004, published 2009)", "key": {"[1]": {"assay": "Stability to transchelation (cysteine / histidine challenge)", "assay_type": "physicochemical", "details": "99mTc-labeled HPLC purified product", "procedure": "The stability of the complex to transchelation was investigated by incubating two separate samples of 4b with 1000 fold excess of cysteine and histidine in PBS buffer heated to 37° C."}, "formyl peptide receptor": {"molecular_target": "T1, formyl peptide receptor (Homo sapiens, UniProt P21462)", "T1 sequence (P21462 1-350)": "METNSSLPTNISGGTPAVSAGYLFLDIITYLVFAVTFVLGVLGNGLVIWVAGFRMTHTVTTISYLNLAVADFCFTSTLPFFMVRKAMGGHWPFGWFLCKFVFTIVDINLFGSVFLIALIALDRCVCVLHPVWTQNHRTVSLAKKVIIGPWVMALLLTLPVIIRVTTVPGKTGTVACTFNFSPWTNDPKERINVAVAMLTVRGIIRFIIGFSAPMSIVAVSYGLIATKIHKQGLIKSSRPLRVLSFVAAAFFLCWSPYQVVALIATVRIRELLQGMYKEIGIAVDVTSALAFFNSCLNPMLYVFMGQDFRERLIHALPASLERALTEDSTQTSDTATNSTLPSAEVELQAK", "assay": "Affinity for the formyl peptide receptor by flow cytometry", "assay_type": "binding", "details": "fluorescein labeled fNLFNTK as the reference ligand", "description": "The affinity of 5 and 6 for the formyl peptide receptor was determined by flow cytometry using fluorescein labeled fNLFNTK as the reference ligand."}, "[2]": {"assay": "Biodistribution / blood clearance of 99mTc complex", "assay_type": "in vivo", "excerpt": "We have also explored extensively the use as ligands for metal tricarbonyls, e.g., Re and Tc tricarbonyls, of protected and unprotected versions of [ε-{N,N-di(pyridyl-2-methyl)}α-(fmoc)lysine] (Fmoc-DpK). The choice of the tridentate DpK for the exploration of a single amino acid chelate was based on the excellent RCP and RCY, and the potential to prepare radiopharmaceutical kits. The pyridine-2-methylamine was easily derivatized into the amino acid.\nThis approach enables the creation of libraries containing the {M(CO)3}^1+ core. We have begun to define the biological fate of the ^99mTc-bis(heteroaryl) complexes, allowing us to compare a series of future tridentate analogs. The dipyridine labeling proceeded in high yield and was stable to excess histidine and cysteine challenges for more than 18 hours. […] Activity decreased in all tissues as a function of time, except in the GI tract, which increased with time."}}, "data": [{"compound": "O=C(NC(CCCCN(Cc1ccccn1)Cc1ccccn1)C(=O)O)OCC1c2ccccc2-c2ccccc21", "note": "(stereo not drawn) [Fmoc-DpK, [ε-{N,N-di(pyridyl-2-methyl)}α-(fmoc)lysine]]", "values": [{"measurement": "degradation in challenge experiments", "setting": "[1]; 100 mM Cysteine or Histidine in PBS pH 7.2 at 37° C. for 18 hrs", "result": "no degradation"}]}, {"compound": "fMLF[(SAACQ-Re(CO)3)^+]G [Compound 6]", "values": [{"measurement": "Kd", "setting": "formyl peptide receptor", "result": "27 ± 13", "unit": "nM"}]}, {"compound": "[^99mTc(CO)3(DpK)]", "values": [{"measurement": "blood clearance % ID/g", "setting": "[2]; 5 minutes", "result": 0.6, "unit": "% ID/g"}, {"measurement": "blood clearance % ID/g", "setting": "[2]; 30 minutes", "result": 0.07, "unit": "% ID/g"}]}, {"compound": "O=C1c2ccccc2C(=O)N1CCCCN(Cc1ccccn1)Cc1ccccn1", "note": "[[{N,N-di(pyridyl-2-methyl)}N-butyl-phthlalimide]]", "values": [{"measurement": "degradation in challenge experiments", "setting": "[1]; 10 mM Cysteine or Histidine in PBS pH 7.2 at 37° C. for 20 hrs", "result": "no degradation"}]}]}
